Data on 20 compounds can be found in patent US20200247800A1, “SUBSTITUTED BICYCLIC HETEROCYCLIC COMPOUNDS AS NADPH OXIDASE INHIBITORS” (Glenmark Pharmaceuticals S.A., priority 2017, published 2020).

This experiment has as its target T1, human NOX4 (Homo sapiens, UniProt Q9NPH5).
T1 construct: expressed in transfected cells; membrane fraction used
T1 sequence (Q9NPH5 1-578): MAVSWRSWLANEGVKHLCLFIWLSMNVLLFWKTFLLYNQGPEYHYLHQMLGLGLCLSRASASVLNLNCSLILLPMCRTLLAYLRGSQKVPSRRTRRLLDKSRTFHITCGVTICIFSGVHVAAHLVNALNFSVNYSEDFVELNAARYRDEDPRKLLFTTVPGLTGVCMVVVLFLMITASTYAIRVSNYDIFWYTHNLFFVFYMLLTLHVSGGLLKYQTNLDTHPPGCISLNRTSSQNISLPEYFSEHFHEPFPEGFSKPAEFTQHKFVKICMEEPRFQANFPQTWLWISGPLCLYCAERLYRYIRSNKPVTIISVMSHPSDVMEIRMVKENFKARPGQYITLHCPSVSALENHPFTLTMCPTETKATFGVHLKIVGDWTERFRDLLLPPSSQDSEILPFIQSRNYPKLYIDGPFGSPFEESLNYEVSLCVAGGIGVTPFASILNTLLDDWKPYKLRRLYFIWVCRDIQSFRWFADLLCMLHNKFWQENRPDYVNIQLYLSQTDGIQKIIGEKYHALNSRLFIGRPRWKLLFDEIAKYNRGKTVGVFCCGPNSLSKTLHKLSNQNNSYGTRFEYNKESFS
T1 sequence (P13498 1-195 partner): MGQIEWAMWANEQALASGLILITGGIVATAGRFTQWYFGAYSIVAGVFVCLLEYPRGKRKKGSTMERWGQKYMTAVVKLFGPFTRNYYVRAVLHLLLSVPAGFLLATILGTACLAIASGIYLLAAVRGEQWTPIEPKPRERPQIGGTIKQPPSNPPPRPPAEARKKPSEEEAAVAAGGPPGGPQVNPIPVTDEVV
As to the kind of experiment: Cell free membrane based in vitro NOX4 assay: H2O2 production by membranes expressing human NOX4, measured with Amplex Red. Format: biochemical. To be noted: for inhibition at 1 µM: 1.0 μM compound, read-out: Percentage inhibition at 1.0 μM; for inhibition at 10 µM: 10.0 μM compound, read-out: Percentage inhibition at 10.0 μM; for IC50: class symbols. How it is done: The inhibition of NOX4 activity was measured as inhibition of formation of reactive oxygen species (ROS) from oxygen in cell free assays. […] A cell free membrane based in vitro assay was developed by preparing membranes from cells stably overexpressing human NOX4. hNOX4/HEK stable cell line was generated in-house for this purpose. Membranes from stably transfected cells overexpressing human NOX4 were prepared by homogenizing the cells in buffer (20 mM HEPES, 1 mM EGTA, 0.5 mM DTT, 0.5% protease inhibitor cocktail, 1 mM PMSF, pH 7.6), followed by centrifugation at 160000 g for 30 min. Membrane fraction (pellet) was resuspended in storage buffer (homogenization buffer with 10% glycerol and 100 mM NaCl) and stored at −80° C. Protein concentration was determined by Bradford reagent. H202 production by membranes expressing human NOX4 was measured using Amplex Red (Invitrogen) by following a slightly modified version of the manufacturer's instruction manual. Briefly, membranes were incubated in assay buffer (25 mM HEPES, 0.12 M NaCl, 3 mM KCl, 1 mM MgCl2, pH 7.4) with Horse Radish Peroxidase (HRP) and Amplex Red. Reaction was started by addition of […] to the membrane mix. Antagonism of NOX4 inhibitors was measured by incubating the membrane with increasing concentrations of the inhibitors for 20 min on a plate shaker prior to addition of NADPH. H2O2 levels were measured for 10 min in a BMG Fluostar microplate reader with excitation and emission wavelengths of 544 nm and 590 nm respectively. Concentration response curves were plotted as a % of maximal response obtained in the absence of the inhibitor. IC50 value was calculated from concentration response curve by nonlinear regression analysis using GraphPad PRISM software.

The structures appear in SMILES notation.

For `Cc1nn(-c2ccc(F)cc2Cl)c2[nH]c(-c3c(F)cccc3F)c(O)c(=O)c12` [Example 139, 1-(2-Chloro-4-fluorophenyl)-6-(2,6-difluorophenyl)-5-hydroxy-3-methyl-1H-pyrazolo[3,4-b]pyridin-4(7H)-one], the inhibition – broadly, the share of the control response that was lost under treatment – at 1 µM was found to be 99%; the inhibition at 10 µM is 100%; the IC50 (in general, the point on the concentration scale where inhibition reaches its midpoint) is 50 to 100 nM.
The corresponding values for `Cn1nc(CO)c2c(=O)c(O)c(-c3ccccc3Cl)[nH]c21` [Example 198, 6-(2-Chlorophenyl)-5-hydroxy-3-(hydroxymethyl)-1-methyl-1H-pyrazolo[3,4-b]pyridin-4(7H)-one] are 87.7%, 86.7% and 50 to 100 nM.
Consider `COc1ccc(-n2nc(C)c3c(=O)c(O)c(-c4c(F)cccc4F)[nH]c32)cc1` [Example 29, 6-(2,6-Difluorophenyl)-5-hydroxy-1-(4-methoxyphenyl)-3-methyl-1,7-dihydro-4H-pyrazolo[3,4-b]pyridin-4-one], for which the inhibition at 1 µM came out at 89.4%, the inhibition at 10 µM worked out at 95.6% and the IC50 was 100 to 150 nM.
With `Cc1nn(-c2ccc(F)c(F)c2)c2[nH]c(-c3c(F)cccc3F)c(O)c(=O)c12` [Example 37, 6-(2,6-Difluorophenyl)-1-(3,4-difluorophenyl)-5-hydroxy-3-methyl-1,7-dihydro-4H-pyrazolo[3,4-b]pyridin-4-one], the inhibition at 1 µM was 100%, the inhibition at 10 µM came to 100% and the concentration for half-maximal inhibition (IC50) fell in the range of 50 to 100 nM.
Consider `Cc1nn(CCN2CCN(C)CC2)c2[nH]c(-c3c(F)cccc3F)c(O)c(=O)c12` [Example 169, 6-(2,6-Difluorophenyl)-5-hydroxy-3-methyl-1-(2-(4-methylpiperazin-1-yl)ethyl)-1H-pyrazolo[3,4-b]pyridin-4(7H)-one], for which the inhibition at 1 µM was determined as 83.7% and the IC50 was in the range of 50 to 100 nM.
For the compound `Cc1c2oc(-c3ccccc3Cl)c(O)c(=O)c2nn1C(C)C` [Example 228, 5-(2-Chlorophenyl)-6-hydroxy-3-methyl-2-(propan-2-yl)pyrano[3,2-c]pyrazol-7(2H)-one], the inhibition at 1 µM came out at 8.66% and the inhibition at 10 µM was found to be 11%.
Consider `CCn1nc(C)c2c(=O)c(O)c(-c3cccc(C(F)(F)F)c3F)[nH]c21` [Example 104, 1-Ethyl-6-[2-fluoro-3-(trifluoromethyl)phenyl]-5-hydroxy-3-methyl-1,7-dihydro-4H-pyrazolo[3,4-b]pyridin-4-one], for which the inhibition at 1 µM is 99.8%, the inhibition at 10 µM is 96.9% and the IC50 is 100 to 150 nM.
As for `CCc1nn(CCC2CCOCC2)c2[nH]c(-c3cccc(C(F)(F)F)c3F)c(O)c(=O)c12` [Example 213, 3-Ethyl-6-(2-fluoro-3-(trifluoromethyl)phenyl)-5-hydroxy-1-(2-(tetrahydro-2H-pyran-4-yl)ethyl)-1H-pyrazolo[3,4-b]pyridin-4(7H)-one], the inhibition at 1 µM is 86.9%, the inhibition at 10 µM stood at 75.6% and the IC50 is > 150 nM.
On to `Cc1nn(C)c2c(=O)c(O)c(-c3ccccc3Cl)[nH]c12` [Example 83, 5-(2-Chlorophenyl)-6-hydroxy-1,3-dimethyl-1H-pyrazolo[4,3-b]pyridin-7(4H)-one], for which the inhibition at 1 µM was 74.4%, the inhibition at 10 µM came out at 99% and the IC50 was > 150 nM.
Turning to `CC(=O)Oc1c(-c2c(F)cccc2F)[nH]c2c(c(C)nn2C)c1=O` [Example 226], the inhibition at 1 µM stood at 22.9% and the inhibition at 10 µM is 66.9%.
Take `CCc1nn(CCN2CCOCC2)c2[nH]c(-c3c(F)cccc3F)c(O)c(=O)c12` [Example 156, 6-(2,6-difluorophenyl)-3-ethyl-5-hydroxy-1-(2-morpholinoethyl)-1H-pyrazolo[3,4-b]pyridin-4(7H)-one]: the inhibition at 1 µM worked out at 97.4%, the inhibition at 10 µM was found to be 100% and the IC50 was < 50 nM.
On to `CCc1nn(CCn2cccn2)c2[nH]c(-c3ccccc3Cl)c(O)c(=O)c12` [Example 157, 1-(2-(1H-pyrazol-1-yl)ethyl)-6-(2-chlorophenyl)-3-ethyl-5-hydroxy-1H-pyrazolo[3,4-b]pyridin-4(7H)-one], for which the inhibition at 1 µM turned out to be 95.2%, the inhibition at 10 µM was 98.6% and the IC50 was 50 to 100 nM.
As for `Cn1nc(C2CCOCC2)c2c(=O)c(O)c(-c3ccccc3Cl)[nH]c21` [Example 193, 6-(2-Chlorophenyl)-5-hydroxy-1-methyl-3-(tetrahydro-2H-pyran-4-yl)-1H-pyrazolo[3,4-b]pyridin-4(7H)-one], the inhibition at 1 µM was 84.7%, the inhibition at 10 µM turned out to be 75.4% and the IC50 is < 50 nM.
On the same counts, the results for `Cn1nc(CN2CCN(CCF)CC2)c2c(=O)c(O)c(-c3c(F)cccc3F)[nH]c21` [Example 221, 6-(2,6-Difluorophenyl)-3-((4-(2-fluoroethyl)piperazin-1-yl)methyl)-5-hydroxy-1-methyl-1H-pyrazolo[3,4-b]pyridin-4(7H)-one] are 84%, 97.1% and > 150 nM.
As to `Cn1nc(C(F)(F)F)c2c(=O)c(O)c(-c3ccc(O)cc3)[nH]c21` [Example 225, 5-hydroxy-6-(4-hydroxyphenyl)-1-methyl-3-(trifluoromethyl)-1,7-dihydro-4H-pyrazolo[3,4-b]pyridin-4-one], the inhibition at 1 µM came to 80.1%, the inhibition at 10 µM stood at 90.7% and the IC50 was > 150 nM.
The corresponding values for `COc1ccc(Cl)c(-c2[nH]c3c(c(C)nn3C)c(=O)c2O)c1` [Example 23, 6-(2-Chloro-5-methoxyphenyl)-5-hydroxy-1,3-dimethyl-1,7-dihydro-4H-pyrazolo[3,4-b]pyridin-4-one] are 100%, 99.3% and 50 to 100 nM.
On the same counts, the results for `CCn1nc(C)c2c(=O)c(O)c(-c3ccc(F)c(C(F)(F)F)c3F)[nH]c21` [Example 116, 6-(2,4-Difluoro-3-(trifluoromethyl)phenyl)-1-ethyl-5-hydroxy-3-methyl-1H-pyrazolo[3,4-b]pyridin-4(7H)-one] are 78.6%, 73% and > 150 nM.
Consider `Cc1nn(CCN2CCNCC2)c2[nH]c(-c3ccccc3Cl)c(O)c(=O)c12` [Example 177, 6-(2-Chlorophenyl)-5-hydroxy-3-methyl-1-(2-(piperazin-1-yl)ethyl)-1H-pyrazolo[3,4-b]pyridin-4(7H)-one], for which the inhibition at 1 µM stood at 68.6%, the inhibition at 10 µM came out at 50.1% and the half-maximal inhibitory concentration (IC50) was > 150 nM.
Turning to `O=c1c(O)c(-c2c(F)cccc2F)[nH]c2c1c(CO)nn2C1CC1` [Example 183, 1-Cyclopropyl-6-(2,6-difluorophenyl)-5-hydroxy-3-(hydroxymethyl)-1H-pyrazolo[3,4-b]pyridin-4(7H)-one], the inhibition at 1 µM is 84.2%, the inhibition at 10 µM was found to be 97.1% and the IC50 was 100 to 150 nM.
The corresponding values for `Cc1nn(C)c2[nH]c(-c3ccc(F)cc3F)c(O)c(=O)c12` [Example 14, 6-(2,4-Difluorophenyl)-5-hydroxy-1,3-dimethyl-1,7-dihydro-4H-pyrazolo[3,4-b]pyridin-4-one] are 100%, 82.5% and 50 to 100 nM.
